Consider 13 compounds from US10981926B2 (Janssen Pharmaceutica NV, priority 2016, dated 2021).

Common to all, as to format: cell-based
Test [1] concerns the target T1, F876L mutant Androgen Receptor (AR-F876L) (Homo sapiens (Human), UniProt P10275, F877L). Description: LNCaP-AR-F876L ANT reporter assay (antagonist mode). As to conditions: for Emax: read-out: LNCaP-AR-F876L ANT MAX % Inh; for IC50: read-out: LNCaP-AR-F876L ANT pIC50 (converted). (In general: In a reporter assay the amount or activity of a reporter protein is the signal.)

For test [2], the target named is T2, wild-type Androgen Receptor (AR-wt) (Homo sapiens (Human), UniProt P10275). Description: LNCaP-AR-wt AG reporter assay (agonist mode). As to conditions: for Emax: read-out: LNCaP-AR-wt AG MAX % Stim; for EC50: read-out: LNCaP-AR-wt AG pEC50 (converted).
T2 sequence (P10275 whole entry): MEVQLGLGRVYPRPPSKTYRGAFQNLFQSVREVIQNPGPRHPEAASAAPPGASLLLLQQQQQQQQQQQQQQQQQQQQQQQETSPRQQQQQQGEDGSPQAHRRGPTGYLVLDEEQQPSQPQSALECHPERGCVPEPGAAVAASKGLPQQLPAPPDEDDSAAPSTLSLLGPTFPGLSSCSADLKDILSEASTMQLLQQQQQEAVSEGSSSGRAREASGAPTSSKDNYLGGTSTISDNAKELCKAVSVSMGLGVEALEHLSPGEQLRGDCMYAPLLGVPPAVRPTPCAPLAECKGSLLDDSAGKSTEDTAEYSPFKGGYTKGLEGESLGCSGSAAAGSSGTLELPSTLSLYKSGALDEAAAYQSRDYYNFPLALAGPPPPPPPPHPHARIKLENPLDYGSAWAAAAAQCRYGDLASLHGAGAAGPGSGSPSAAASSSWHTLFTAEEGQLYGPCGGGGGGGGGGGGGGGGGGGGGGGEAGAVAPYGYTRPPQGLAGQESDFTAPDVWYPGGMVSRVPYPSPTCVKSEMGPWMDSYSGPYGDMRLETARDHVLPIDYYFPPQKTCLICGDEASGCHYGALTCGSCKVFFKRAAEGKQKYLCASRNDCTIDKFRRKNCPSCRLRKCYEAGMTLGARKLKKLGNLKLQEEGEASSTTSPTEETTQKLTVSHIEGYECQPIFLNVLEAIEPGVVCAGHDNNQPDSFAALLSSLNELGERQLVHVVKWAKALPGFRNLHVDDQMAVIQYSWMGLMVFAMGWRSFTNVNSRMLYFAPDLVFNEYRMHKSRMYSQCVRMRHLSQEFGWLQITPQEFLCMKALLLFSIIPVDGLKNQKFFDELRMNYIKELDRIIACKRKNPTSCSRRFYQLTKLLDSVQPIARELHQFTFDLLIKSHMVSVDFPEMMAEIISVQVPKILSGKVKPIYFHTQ
For test [3], the target named is T1, F876L mutant Androgen Receptor (AR-F876L). As to the kind of experiment: LNCaP-AR-F876L AG reporter assay (agonist mode). Particulars: for Emax: read-out: LNCaP-AR-F876L AG MAX % Stim; for EC50: read-out: LNCaP-AR-F876L AG pEC50 (converted).
In test [4] the target is T2, wild-type Androgen Receptor (AR-wt). Description: LNCaP-AR-wt ANT reporter assay (antagonist mode). As to conditions: for Emax: read-out: LNCaP-AR-wt ANT MAX % Inh; for IC50: read-out: LNCaP-AR-wt ANT pIC50 (converted).
[5] abbreviates: antagonist mode, maximum % inhibition of R1881 control response over tested concentration range.
Setting [6] is: antagonist mode, pIC50 = −Log10(IC50 in Molar).
[7] abbreviates: agonist mode, maximum % stimulation over tested concentration range.
Where [8] appears, read: agonist mode, pEC50 = −Log10(EC50 in Molar).
[9] abbreviates: maximum % inhibition of R1881 control response over the tested concentration range.
[10] abbreviates: maximum % stimulation (agonist response) over the tested concentration range.

pEC50, pIC50: −log10 of the molar value. Where two headings read alike, the source gives them in different places.

T1 sequence (P10275 whole entry F877L): as the sequence (P10275 whole entry) above, with F877L counted along it

For `COc1cc(N2C(=O)C3(CCC3)N(c3ccc(CC4CCNCC4)cc3)C2=S)cnc1C#N` [Cpd 236, 3-Methoxy-5-[8-oxo-5-(4-piperidin-4-ylmethyl-phenyl)-6-thioxo-5,7-diaza-spiro[3.4]oct-7-yl]-pyridine-2-carbonitrile], the Emax in test [1] (setting [5]) was found to be 101%; in test [2] (setting [7]), 0.6%; in test [3] (setting [7]) it was 0.2%; in test [4] (setting [5]), 103%. In addition, the IC50 in test [1] (setting [6]) is 269 nM; in test [4] (setting [6]) it was 457 nM. Moreover, the EC50 in test [2] (setting [8]) and in test [3] (setting [8]) was greater than 15100 nM in each case.

For the compound `N#Cc1ncc(N2C(=O)C3(CCC3)N(c3ccc(OC4CCSCC4)cc3)C2=S)cc1C(F)(F)F` [Cpd 12, 5-[5-oxo-8-(4-thian-4-yloxyphenyl)-7-thioxo-6,8-diazaspiro[3.4]oct-6-yl]-3-(trifluoromethyl)pyridine-2-carbonitrile], the results for the IC50 in test [1] (setting [6]) and in test [4] (setting [6]) were 117 nM and 661 nM, respectively. Further, the Emax in test [1] (setting [9]) is 98.5%; in test [2] (setting [10]), 0.5%; in test [3] (setting [10]) it was 0.7%; in test [4] (setting [9]), 101%. Also, the EC50 in test [2] (setting [8]) and in test [3] (setting [8]) was greater than 15100 nM in each case.

`N#Cc1ncc(N2C(=O)C3(CCC3)N(c3ccc(C(=O)NC[C@@H]4CCCNC4)c(F)c3)C2=S)cc1C(F)(F)F` [Cpd 202, 4-[6-[6-cyano-5-(trifluoromethyl)-3-pyridyl]-5-oxo-7-thioxo-6,8-diazaspiro[3.4]octan-8-yl]-2-fluoro-N-[[(3R)-3-piperidyl]methyl]benzamide]: the Emax in test [1] (setting [5]) was 101%; in test [2] (setting [7]) it was -0.1%; in test [3] (setting [7]), 0%; in test [4] (setting [5]), 102%. Also, the IC50 is 603 nM in test [1] (setting [6]) and 1100 nM in test [4] (setting [6]). The EC50 in test [2] (setting [8]) and in test [3] (setting [8]) was greater than 15100 nM in each case.

For `N#Cc1ncc(N2C(=O)C3(CCC3)N(c3ccc(OC4CCS(=O)(=O)CC4)cc3)C2=S)cc1C(F)(F)F` [Cpd 13, 5-{8-[4-(1,1-dioxothian-4-yloxy)phenyl]-5-oxo-7-thioxo-6,8-diazaspiro[3.4]oct-6-yl}-3-(trifluoromethyl)pyridine-2-carbonitrile], the IC50 is 363 nM in test [1] (setting [6]) and 537 nM in test [4] (setting [6]). The Emax in test [1] (setting [9]) was 98.1%; in test [2] (setting [10]), 0.5%; in test [3] (setting [10]), 1%; in test [4] (setting [9]), 101%. Besides, the EC50 in test [2] (setting [8]) and in test [3] (setting [8]) was greater than 15100 nM each time.

Turning to `CC(C)(C)OC(=O)N1CCN(C(=O)c2ccc(N3C(=S)N(c4cnc(C#N)c(C(F)(F)F)c4)C(=O)C34CCC4)cc2)CC1` [Cpd 32, tert-butyl 4-[4-[6-[6-cyano-5-(trifluoromethyl)-3-pyridyl]-5-oxo-7-thioxo-6,8-diazaspiro[3.4]octan-8-yl]benzoyl]piperazine-1-carboxylate], the IC50 in test [1] (setting [6]) was 1120 nM; in test [4] (setting [6]) it was 2140 nM. Moreover, the Emax in test [1] (setting [9]) was 74.1%; in test [2] (setting [10]) it was 0.4%; in test [3] (setting [10]) it was -0.1%; in test [4] (setting [9]), 64.9%. Besides, the EC50 in test [2] (setting [8]) and in test [3] (setting [8]) was greater than 15100 nM throughout.

In the case of `CN1C2C=C(c3ccc(N4C(=S)N(c5cnc(C#N)c(C(F)(F)F)c5)C(=O)C45CCC5)cc3)CC1CC2` (stereo not drawn) [Cpd 127, 5-[8-[4-(8-methyl-8-azabicyclo[3.2.1]oct-3-en-3-yl)phenyl]-5-oxo-7-thioxo-6,8-diazaspiro[3.4]octan-6-yl]-3-(trifluoromethyl)pyridine-2-carbonitrile], the “LNCaP-AR-F876L ANT pIC50” value in test [1] (setting [6]) is recorded as 6.37. The Emax is 102% in test [1] (setting [9]), 0.5% in test [2] (setting [10]), 0.4% in test [3] (setting [10]) and 102% in test [4] (setting [9]). The “LNCaP-AR-wt AG pEC50” value in test [2] (setting [8]) is less than 4.82. Moreover, the “LNCaP-AR-F876L AG pEC50” value in test [3] (setting [8]) is less than 4.82. Further, the “LNCaP-AR-wt ANT pIC50” value in test [4] (setting [6]) was found to be 6.23.

Take `CN1CC[C@@H](CNC(=O)c2ccc(N3C(=S)N(c4cnc(C#N)c(C(F)(F)F)c4)C(=O)C34CCC4)cc2F)C1` [Cpd 205, 4-[6-[6-cyano-5-(trifluoromethyl)-3-pyridyl]-5-oxo-7-thioxo-6,8-diazaspiro[3.4]octan-8-yl]-2-fluoro-N-[[(3S)-1-methylpyrrolidin-3-yl]methyl]benzamide]: the Emax in test [1] (setting [5]) was 100%; in test [2] (setting [7]), -0.1%; in test [3] (setting [7]), 0.1%; in test [4] (setting [5]), 101%. The IC50 was 708 nM in test [1] (setting [6]) and 1100 nM in test [4] (setting [6]). Moreover, the EC50 in test [2] (setting [8]) and in test [3] (setting [8]) was greater than 15100 nM in each case.

Take `CCNC(=O)n1cc(-c2ccc(N3C(=S)N(c4cnc(C#N)c(C)c4)C(=O)C34CCC4)cc2)cn1` [Cpd 10, (4-{4-[7-(6-cyano-5-methyl(3-pyridyl))-8-oxo-6-thioxo-5,7-diazaspiro[3.4]oct-5-yl]phenyl}pyrazolyl)-N-ethylcarboxamide]: the results for the IC50 in test [1] (setting [6]) and in test [4] (setting [6]) were 275 nM and 339 nM, respectively. The Emax in test [1] (setting [9]) was determined as 100%; in test [2] (setting [10]), 0.5%; in test [3] (setting [10]), 0.9%; in test [4] (setting [9]), 102%. For the same compound, the EC50 in test [2] (setting [8]) and in test [3] (setting [8]) was greater than 15100 nM each time.

With `CN1CC2CCC(C1)C2Oc1ccc(N2C(=S)N(c3cnc(C#N)c(C(F)(F)F)c3)C(=O)C23CCC3)cc1` (stereo not drawn) [Cpd 146, 5-[8-[4-[(3-methyl-3-azabicyclo[3.2.1]octan-8-yl)oxy]phenyl]-5-oxo-7-thioxo-6,8-diazaspiro[3.4]octan-6-yl]-3-(trifluoromethyl)pyridine-2-carbonitrile], the IC50 was 61.7 nM in test [1] (setting [6]) and 100 nM in test [4] (setting [6]). In addition, the Emax in test [1] (setting [9]) is 101%; in test [2] (setting [10]), 0.1%; in test [3] (setting [10]), -0.1%; in test [4] (setting [9]), 103%. The EC50 in test [2] (setting [8]) and in test [3] (setting [8]) was greater than 15100 nM each time.

`CN(C)C1(c2ccc(N3C(=S)N(c4cnc(C#N)c(C(F)(F)F)c4)C(=O)C34CCC4)cc2)COC1` [Cpd 197, 5-(5-(4-(3-(dimethylamino)oxetan-3-yl)phenyl)-8-oxo-6-thioxo-5,7-diazaspiro[3.4]octan-7-yl)-3-(trifluoromethyl)picolinonitrile]: the pIC50 (commonly the IC50 on a negative log10 scale, so that one unit is a factor of ten) is 6.35 in test [1] (LNCaP-AR-F876L ANT pIC50) and 5.97 in test [4] (LNCaP-AR-wt ANT pIC50). For the same compound, the Emax was 101% in test [1], 0.1% in test [2], 0.3% in test [3] and 99.3% in test [4]. Also, the pEC50 in test [2] and in test [3] was less than 4.82 in each case.

As to `CN1CC[C@@H](Oc2ccc(N3C(=S)N(c4cnc(C#N)c(C(F)(F)F)c4)C(=O)C34CCC4)cc2)C[C@H]1C(F)(F)F` (racemic) [Cpd 158, 5-[8-[4-[[(2SR, 4RS)-1-methyl-2-(trifluoromethyl)-4-piperidyl]oxy]phenyl]-5-oxo-7-thioxo-6,8-diazaspiro[3.4]octan-6-yl]-3-(trifluoromethyl)pyridine-2-carbonitrile], the IC50 in test [1] (setting [6]) is 427 nM; in test [4] (setting [6]) it was 316 nM. The Emax in test [1] (setting [9]) was determined as 95.6%; in test [2] (setting [10]), 0.3%; in test [3] (setting [10]), 2.3%; in test [4] (setting [9]) it was 100%. The EC50 in test [2] (setting [8]) and in test [3] (setting [8]) was greater than 15100 nM in each case.

Take `COc1cc(N2C(=O)C3(CCC3)N(c3ccc(OC4CCN(C)CC4)nc3)C2=S)cnc1C#N` [Cpd 25]: the Emax in test [1] (setting [9]) was 100%; in test [2] (setting [10]), 0%; in test [3] (setting [10]) it was 0.2%; in test [4] (setting [9]) it was 101%. The EC50 in test [2] (setting [8]) and in test [3] (setting [8]) was greater than 15100 nM each time.

As for `CC(=O)N1CCc2cc(N3C(=S)N(c4cnc(C#N)c(C(F)(F)F)c4)C(=O)C34CCC4)ccc2C1` [Cpd 120, 5-(5-(2-acetyl-1,2,3,4-tetrahydroisoquinolin-6-yl)-8-oxo-6-thioxo-5,7-diazaspiro[3.4]octan-7-yl)-3-(trifluoromethyl)picolinonitrile], the results for the IC50 in test [1] (setting [6]) and in test [4] (setting [6]) were 339 nM and 200 nM, respectively. Moreover, the Emax in test [1] (setting [9]) was determined as 101%; in test [2] (setting [10]), 0.2%; in test [3] (setting [10]), 1.1%; in test [4] (setting [9]) it was 100%. The EC50 in test [2] (setting [8]) and in test [3] (setting [8]) was greater than 15100 nM in each case.
